# In PubChem BioAssay AID1963848 (Molecular Pharmacology Branch, DTP, NCI, 2024):
# Test system: 379773-124-R-J2-PDC spheroid viability
# Assay: Anticancer human tumor 379773-124-R-J2-PDC patient-derived endometrial carcinoma cell line growth inhibition [POLQ]
# Conditions: spheroids with HUVEC and MSC; for IC50: curve of first compound; for viability, T/C: stronger effect = lower value
# Description: Multicellular complex tumor spheroid response to Polymerase (POL) inhibitors (novobiocin, ART-558, RP6685) in combination with a variety of drugs and investigational agents in selected tumor cell lines
# The POL inhibitors (novobiocin, ART-558, and RP6685) were evaluated both individually and in combination with standard of care and investigational anticancer small molecules within a complex spheroid model of solid tumors. . Complex spheroids include a stromal component modeled by human endothelial cells (HUVEC) and fibroblasts modeled by human mesenchymal stem cells (MSCs). The concentration ranges selected for each drug and investigational agent were based upon clinically achievable concentrations if the clinical Cmax of the agent was known.
# Compounds. The drugs and investigational agents: novobiocin (NSC847541), ART-558 (NSC835418), RP-6685 (NSC848927), peposertib (NSC802822), ceralasertib (NSC780249), elimusertib (NSC800525), camonsertib (NSC841442), AZD-1390 (NSC803789), olaparib (NSC753686), talazoparib (NSC767125), rucaparib (NSC756644), sotorasib (NSC818433), MRTX-1133 (NSC836407), SN-38 (NSC673596), topotecan (NSC609699), epotoside (NSC141540), doxorubicin (NSC123127), gemcitabine (NSC613327), 5-fluorouracil (NSC19893), paclitaxel (NSC125973), vemurafenib (NSC761431), MSA-2 (NSC828583), SN-011 (NSC837082), adavosertib (NSC754352), prexasertib (NSC758257), carboplatin (NSC241240) and oxaliplatin (NSC266046), were obtained from the National Cancer Institute (NCI) Developmental Therapeutics Program Chemical Repository (21). The FDA-approved anticancer drug set is available from the Developmental Therapeutics Program at https://dtp.cancer.gov/organization/dscb/obtaining/. […] The stock solutions were prepared in dimethyl sulfoxide (DMSO, Sigma-Aldrich, St. Louis, MO, cat. D2650), except for the platinum compounds which were prepared in saline (Quality Biological, Gaithersburg, MD, cat. 114-055-101), at 800-fold the tested concentration and stored at -70 degrees C prior to their use. All drugs and investigational agents were tested over a range starting from a high concentration at or near the clinical Cmax and decreasing in half-log increments. If the clinical Cmax for an agent had not been determined, the highest concentration tested was 10 microM, except for SN-38, which was tested at a high concentration of 1 microM.
# Cell Culture. All cells were maintained in an incubator at 37 degrees C and 5% CO2 with 95% humidity. The PDC lines were cultured according to standard operating procedures established by the NCI PDMR (https://pdmr.cancer.gov). Table 3 of the manuscript, lists the cell lines along with the number of the three cell types plated to form the mct-spheroids and media for tumor cell growth. After thawing, all PDC lines, except 997537-175-T-J1-PDC and 415267-285-R-J2-PDC, were cultured in Matrigel-coated flasks prepared with a working solution of 1X Ham's F-12 nutrient mix, without supplementation (Thermo Fisher Scientific, cat. 11765054), 100 U/mL penicillin-streptomycin (Thermo Fisher Scientific, cat. 15140122), and 2.5% Matrigel (Corning Inc., Corning, NY, cat. 354248) for the first three passages. The two PDC lines 997537-175-T-J1-PDC and 415267-285-R-J2-PDC were cultured on uncoated flasks. The 857933-349-R-J2-PDC line was cultured in 6C/Colon 1B media containing advanced DMEM/F-12 (Thermo Fisher Scientific, cat. 12634028), 10 mM HEPES (Thermo Fisher Scientific, cat. 15630080), 1X GlutaMAX supplement (Thermo Fisher Scientific, cat. 35050061), 0.1 mg/mL primocin (InvivoGen, San Diego, CA, cat. ant-pm-2), 10% defined fetal bovine serum, heat inactivated (HyClone Laboratories Inc., Logan, UT, cat. SH30070.03HI), 50% L-WRN conditioned media (ATCC, cat. CRL-3276), 1.25 mM N-Acetyl-L-cysteine (Sigma-Aldrich, cat. A9165), 10 mM nicotinamide (Sigma-Aldrich, cat. N0636), 1X B-27 supplement (Thermo Fisher Scientific, cat. 17504044), 1X N-2 supplement (Thermo Fisher Scientific, cat. […]
# [1] = second compound 0.0316 µM, first compound 0.0316 µM
# [2] = second compound 0.0316 µM, first compound 0.1 µM
# [3] = second compound 0.0316 µM, first compound 0.316 µM
# [4] = second compound 0.0316 µM, first compound 1 µM
# [5] = second compound 0.0316 µM, first compound 3.16 µM
# [6] = second compound 0.0316 µM, first compound 10 µM
# [7] = second compound 0.1 µM, first compound 0.0316 µM
# [8] = second compound 0.1 µM, first compound 0.1 µM
# [9] = second compound 0.1 µM, first compound 0.316 µM
# [10] = second compound 0.1 µM, first compound 1 µM
# [11] = second compound 0.1 µM, first compound 3.16 µM
# [12] = second compound 0.1 µM, first compound 10 µM
# [13] = second compound 0.316 µM, first compound 0.0316 µM
# [14] = second compound 0.316 µM, first compound 0.1 µM
# [15] = second compound 0.316 µM, first compound 0.316 µM
# [16] = second compound 0.316 µM, first compound 1 µM
# [17] = second compound 0.316 µM, first compound 3.16 µM
# [18] = second compound 0.316 µM, first compound 10 µM
# [19] = second compound 1 µM, first compound 0.0316 µM
# [20] = second compound 1 µM, first compound 0.1 µM
# [21] = second compound 1 µM, first compound 0.316 µM
# [22] = second compound 1 µM, first compound 1 µM
# [23] = second compound 1 µM, first compound 3.16 µM
# [24] = second compound 1 µM, first compound 10 µM
# [25] = second compound 3.16 µM, first compound 0.0316 µM
# [26] = second compound 3.16 µM, first compound 0.1 µM
# [27] = second compound 3.16 µM, first compound 0.316 µM
# [28] = second compound 3.16 µM, first compound 1 µM
# [29] = second compound 3.16 µM, first compound 3.16 µM
# [30] = second compound 3.16 µM, first compound 10 µM
# [31] = second compound 10 µM, first compound 0.0316 µM
# [32] = second compound 10 µM, first compound 0.1 µM
# [33] = second compound 10 µM, first compound 0.316 µM
# [34] = second compound 10 µM, first compound 1 µM
# [35] = second compound 10 µM, first compound 3.16 µM
# [36] = second compound 10 µM, first compound 10 µM
# 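Further: spheroids exposed to drugs for seven days before readout.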
# 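Wherever viability, T/C is given: percent viability relative to DMSO vehicle control taken as 100%.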
smiles,measurement,setting,value
C=CC(=O)N1CCN(c2nc(=O)n(-c3c(C)ccnc3C(C)C)c3nc(-c4c(O)cccc4F)c(F)cc23)C(C)C1 (stereo unspecified) + Nc1ccc(C#CCN(C(=O)Cc2ncc(C(F)(F)F)cc2C(F)(F)F)c2ccc(F)cc2)nn1,IC50,second compound 0.0316 µM,> 10 µM
same,IC50,second compound 0.1 µM,> 10 µM
same,IC50,second compound 0.316 µM,> 10 µM
same,IC50,second compound 1 µM,> 10 µM
same,IC50,second compound 3.16 µM,> 10 µM
same,IC50,second compound 10 µM,> 10 µM
same,"viability, T/C",[1],102%
same,"viability, T/C",[2],91.5%
same,"viability, T/C",[3],103%
same,"viability, T/C",[4],94.7%
same,"viability, T/C",[5],114%
same,"viability, T/C",[6],96.1%
same,"viability, T/C",[7],90%
same,"viability, T/C",[8],89.1%
same,"viability, T/C",[9],104%
same,"viability, T/C",[10],98.7%
same,"viability, T/C",[11],92%
same,"viability, T/C",[12],91.7%
same,"viability, T/C",[13],95.4%
same,"viability, T/C",[14],93.5%
same,"viability, T/C",[15],90.2%
same,"viability, T/C",[16],86.4%
same,"viability, T/C",[17],94.1%
same,"viability, T/C",[18],100%
same,"viability, T/C",[19],89.2%
same,"viability, T/C",[20],85.5%
same,"viability, T/C",[21],99.6%
same,"viability, T/C",[22],93%
same,"viability, T/C",[23],98.8%
same,"viability, T/C",[24],103%
same,"viability, T/C",[25],91.9%
same,"viability, T/C",[26],90.9%
same,"viability, T/C",[27],101%
same,"viability, T/C",[28],90.3%
same,"viability, T/C",[29],95%
same,"viability, T/C",[30],93.3%
same,"viability, T/C",[31],88.3%
same,"viability, T/C",[32],91.4%
same,"viability, T/C",[33],93.3%
same,"viability, T/C",[34],91.4%
same,"viability, T/C",[35],94.9%
same,"viability, T/C",[36],98.2%
COc1cccc(OCCCN)c1-c1cc(Nc2cnc(C#N)cn2)n[nH]1 + Nc1ccc(C#CCN(C(=O)Cc2ncc(C(F)(F)F)cc2C(F)(F)F)c2ccc(F)cc2)nn1,IC50,second compound 0.0316 µM,0.00621 µM
same,IC50,second compound 0.1 µM,0.00612 µM
same,IC50,second compound 0.316 µM,0.00636 µM
same,IC50,second compound 1 µM,0.00647 µM
same,IC50,second compound 3.16 µM,0.0064 µM
same,IC50,second compound 10 µM,0.00636 µM
same,"viability, T/C","second compound 0.0316 µM, first compound 0.00316 µM",86.5%
same,"viability, T/C","second compound 0.0316 µM, first compound 0.01 µM",24.3%
same,"viability, T/C",[1],3.65%
same,"viability, T/C",[2],2.95%
same,"viability, T/C",[3],2.97%
same,"viability, T/C",[4],1.66%
same,"viability, T/C","second compound 0.1 µM, first compound 0.00316 µM",80.2%
same,"viability, T/C","second compound 0.1 µM, first compound 0.01 µM",27.6%
same,"viability, T/C",[7],3.76%
same,"viability, T/C",[8],2.65%
same,"viability, T/C",[9],2.25%
same,"viability, T/C",[10],1.2%
same,"viability, T/C","second compound 0.316 µM, first compound 0.00316 µM",95.2%
same,"viability, T/C","second compound 0.316 µM, first compound 0.01 µM",20.7%
same,"viability, T/C",[13],3.16%
same,"viability, T/C",[14],2.72%
same,"viability, T/C",[15],3.55%
same,"viability, T/C",[16],1.23%
same,"viability, T/C","second compound 1 µM, first compound 0.00316 µM",98.5%
same,"viability, T/C","second compound 1 µM, first compound 0.01 µM",20.5%
same,"viability, T/C",[19],3.32%
same,"viability, T/C",[20],2.87%
same,"viability, T/C",[21],4.02%
same,"viability, T/C",[22],1.67%
same,"viability, T/C","second compound 3.16 µM, first compound 0.00316 µM",102%
same,"viability, T/C","second compound 3.16 µM, first compound 0.01 µM",16.9%
same,"viability, T/C",[25],3.53%
same,"viability, T/C",[26],1.93%
same,"viability, T/C",[27],2.04%
same,"viability, T/C",[28],1.29%
same,"viability, T/C","second compound 10 µM, first compound 0.00316 µM",93.2%
same,"viability, T/C","second compound 10 µM, first compound 0.01 µM",22%
same,"viability, T/C",[31],2.53%
same,"viability, T/C",[32],2.36%
same,"viability, T/C",[33],2.24%
same,"viability, T/C",[34],1.49%
Nc1ccn(C2OC(CO)C(O)C2(F)F)c(=O)n1 (stereo unspecified) + Nc1ccc(C#CCN(C(=O)Cc2ncc(C(F)(F)F)cc2C(F)(F)F)c2ccc(F)cc2)nn1,IC50,second compound 0.0316 µM,< 0.0316 µM
same,IC50,second compound 0.1 µM,< 0.0316 µM
same,IC50,second compound 0.316 µM,< 0.0316 µM
same,IC50,second compound 1 µM,< 0.0316 µM
same,IC50,second compound 3.16 µM,0.042 µM
same,IC50,second compound 10 µM,0.0719 µM
same,"viability, T/C",[1],15.1%
same,"viability, T/C",[2],10.6%
same,"viability, T/C",[3],11.7%
same,"viability, T/C",[4],13.6%
same,"viability, T/C",[5],12.6%
same,"viability, T/C",[6],9.91%
same,"viability, T/C",[7],19.5%
same,"viability, T/C",[8],11.3%
same,"viability, T/C",[9],11.3%
same,"viability, T/C",[10],11.7%
same,"viability, T/C",[11],12.6%
same,"viability, T/C",[12],11.1%
same,"viability, T/C",[13],24%
same,"viability, T/C",[14],12.2%
same,"viability, T/C",[15],10.3%
same,"viability, T/C",[16],13.1%
same,"viability, T/C",[17],12%
same,"viability, T/C",[18],12%
same,"viability, T/C",[19],36.3%
same,"viability, T/C",[20],11.9%
same,"viability, T/C",[21],10.3%
same,"viability, T/C",[22],9.8%
same,"viability, T/C",[23],10.8%
same,"viability, T/C",[24],12.4%
same,"viability, T/C",[25],61.2%
same,"viability, T/C",[26],15.9%
same,"viability, T/C",[27],10.5%
same,"viability, T/C",[28],10.6%
same,"viability, T/C",[29],9.92%
same,"viability, T/C",[30],10.9%
same,"viability, T/C",[31],96.1%
same,"viability, T/C",[32],31.3%
same,"viability, T/C",[33],12.7%
same,"viability, T/C",[34],9.85%
same,"viability, T/C",[35],10.6%
same,"viability, T/C",[36],9.44%
